Patent US12194051B2, “5-azaindazole derivatives as adenosine receptor antagonists” (MERCK PATENT GMBH, priority 2018, dated 2025)

Columns and labels:
human A2A receptors = biological target: T1, human A2A receptors (Homo sapiens, UniProt P29274); experiment: Inhibition of human A2A receptor in recombinant HEK293 cells, cAMP quantification (HTRF); format: cell-based; settings: read-out: A2A (Category)
T1 construct: expressed in transfected cells; host or cells: HEK293
Description: (§1) The functional activities of human A2A and A2B receptors were determined by quantification of cAMP, being the second messenger for adenosine receptors.
(§2) After a 15 min incubation, HTRF reagents (cAMP dynamic 2, Cis Bio) were added and the cellular cAMP levels were determined using the ENVISION (Perkin Elmer) plate reader.

human A2B receptors = biological target: T2, human A2B receptors (Homo sapiens, UniProt P29275); experiment: Inhibition of human A2B receptor in recombinant HEK293 cells, cAMP quantification (HTRF); format: cell-based; settings: read-out: A2B (Category)
T2 construct: expressed in transfected cells; host or cells: HEK293
T2 sequence (P29275 1-332): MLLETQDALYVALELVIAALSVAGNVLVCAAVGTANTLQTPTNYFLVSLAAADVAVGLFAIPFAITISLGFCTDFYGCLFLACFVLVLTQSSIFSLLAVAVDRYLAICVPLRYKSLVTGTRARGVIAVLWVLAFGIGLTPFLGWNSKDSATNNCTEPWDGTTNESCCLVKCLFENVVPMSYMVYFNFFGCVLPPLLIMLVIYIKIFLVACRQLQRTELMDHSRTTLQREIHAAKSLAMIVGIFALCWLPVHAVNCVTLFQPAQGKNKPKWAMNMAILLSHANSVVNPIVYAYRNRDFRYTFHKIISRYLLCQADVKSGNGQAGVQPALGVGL
Description: as §1, §2

T1 sequence (P29274 whole entry): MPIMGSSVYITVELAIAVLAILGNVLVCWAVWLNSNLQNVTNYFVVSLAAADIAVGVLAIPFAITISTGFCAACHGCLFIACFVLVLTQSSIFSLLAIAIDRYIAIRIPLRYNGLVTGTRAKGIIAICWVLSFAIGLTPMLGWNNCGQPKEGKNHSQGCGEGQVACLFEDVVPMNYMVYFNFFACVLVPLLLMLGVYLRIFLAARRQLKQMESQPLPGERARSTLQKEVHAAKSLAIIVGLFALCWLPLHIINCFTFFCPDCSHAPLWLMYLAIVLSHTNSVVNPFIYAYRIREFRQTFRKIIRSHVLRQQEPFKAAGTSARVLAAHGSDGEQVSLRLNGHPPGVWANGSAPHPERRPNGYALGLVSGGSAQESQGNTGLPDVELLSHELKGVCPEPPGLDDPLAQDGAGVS

Compound | IC50 (human A2A receptors) | IC50 (human A2B receptors)
O=C(c1cc2c(cn1)c(Nc1ccccn1)nn2CC(F)(F)F)N1[C@@H]2CC[C@H]1C[C@@H](O)C2 [Compound 127, (3-endo-hydroxy-8-azabicyclo[3.2.1]octan-8-yl)-[3-(2-pyridylamino)-1-(2,2,2-trifluoroethyl)pyrazolo[4,3-c]pyridin-6-yl]methanone] | < 100 nM | < 100 nM
O=C(c1cc2c(cn1)c(Nc1cccc(F)n1)nn2CC(F)(F)F)N1CCCOCC1 [Compound 49, [3-[(6-fluoro-2-pyridyl)amino]-1-(2,2,2-trifluoroethyl)pyrazolo[4,3-c]pyridin-6-yl]-(1,4-oxazepan-4-yl)methanone] | < 100 nM | < 100 nM
O=C(c1cc2c(cn1)c(Nc1cccc(Cl)n1)nn2CC(F)(F)F)N1CCCOCC1 [Compound 51, [3-[(6-chloro-2-pyridyl)amino]-1-(2,2,2-trifluoroethyl)pyrazolo[4,3-c]pyridin-6-yl]-(1,4-oxazepan-4-yl)methanone] | < 100 nM | < 1000 nM
O=C(c1cc2c(cn1)c(Nc1cc(C(F)(F)F)ccn1)nn2CC(F)(F)F)N1CCCOCC1 [Compound 62, 1,4-oxazepan-4-yl-[1-(2,2,2-trifluoroethyl)-3-[[4-(trifluoromethyl)-2-pyridyl]amino]pyrazolo[4,3-c]pyridin-6-yl]methanone] | < 100 nM | < 1000 nM
COc1cccc(Nc2nn(CC(F)(F)F)c3cc(C(=O)N4CCCOCC4)ncc23)c1 [Compound 7, [3-(3-methoxyanilino)-1-(2,2,2-trifluoroethyl)pyrazolo[4,3-c]pyridin-6-yl]-(1,4-oxazepan-4-yl)methanone] | < 100 nM | < 100 nM
O=C(c1cc2c(cn1)c(Nc1ccc(F)cn1)nn2CC(F)(F)F)N1CCC[C@H](O)C1 [Compound 98, [(3S)-3-hydroxy-piperidin-1-yl]-[3-(5-Fluoro-pyridin-2-ylamino)-1-(2,2,2-trifluoro-ethyl)-1H-pyrazolo[4,3-c]pyridin-6-yl]methanone] | < 100 nM | < 1000 nM
Cc1ccnc(Nc2nn(CC(F)(F)F)c3cc(C(=O)N4CCCOCC4)ncc23)c1 [Compound 68, [3-[(4-methyl-2-pyridyl)amino]-1-(2,2,2-trifluoroethyl)pyrazolo[4,3-c]pyridin-6-yl]-(1,4-oxazepan-4-yl)methanone] | < 100 nM | < 1000 nM
CC1(O)CCN(C(=O)c2cc3c(cn2)c(Nc2cc(F)ccn2)nn3CC(F)(F)F)CC1 [Compound 112, [3-(4-Fluoro-pyridin-2-ylamino)-1-(2,2,2-trifluoro-ethyl)-1H-pyrazolo[4,3-c]pyridin-6-yl]-(4-hydroxy-4-methyl-piperidin-1-yl)-methanone] | < 100 nM | < 100 nM
O=C(c1cc2c(cn1)c(Nc1ccccn1)nn2CC(F)(F)F)N1CCOCC(O)C1 (stereo not drawn) [Compound 52, (6-hydroxy-1,4-oxazepan-4-yl)-[3-(2-pyridylamino)-1-(2,2,2-trifluoroethyl)pyrazolo[4,3-c]pyridin-6-yl]methanone] | < 100 nM | < 100 nM
O=C(c1cc2c(cn1)c(Nc1ccccn1)nn2CC(F)(F)F)N1CCC(O)CC1 [Compound 24, (4-hydroxy-1-piperidyl)-[3-(2-pyridylamino)-1-(2,2,2-trifluoroethyl)pyrazolo[4,3-c]pyridin-6-yl]methanone] | < 100 nM | < 100 nM
O=C(c1cc2c(cn1)c(Nc1ccc(F)cc1)nn2CC(F)(F)F)N1[C@@H]2CC[C@H]1C[C@@H](O)C2 [Compound 26, [3-(4-fluoroanilino)-1-(2,2,2-trifluoroethyl)pyrazolo[4,3-c]pyridin-6-yl]-(3-endo-hydroxy-8-azabicyclo[3.2.1]octan-8-yl)methanone] | < 100 nM | < 1000 nM
O=C(c1cc2c(cn1)c(Nc1cc(F)cc(F)c1)nn2CC(F)(F)F)N1CCCOCC1 [Compound 15, [3-(3,5-difluoroanilino)-1-(2,2,2-trifluoroethyl)pyrazolo[4,3-c]pyridin-6-yl]-(1,4-oxazepan-4-yl)methanone] | < 100 nM | < 1000 nM
